Assay [1] deals with ras-transformed fibroblasts (ras 3T3 cells). Briefly: MTS-based cell-viability assay, control cells (FIG. 3B). The settings on record: for survival (viable surviving fraction): MTS assay at day 5, over the dose range examined; for effect on cell growth: singly or together. The procedure:
Screening Assay. […] Cells were plated and attached overnight in growth media consisting of DMEM with 10% fetal bovine serum (FBS). […] Media with agents was replaced every 48 hours. At day 5 and 8, media was withdrawn and cells were fixed and stained in 0.5% crystal violet in 70% methanol. The crystal violet stained cells reveal a dense intact monolayer in media absent either agent. […] This observed synergistic effect is an important finding in the treatment of diseases characterized by hyperproliferation of cells. […] For cell-counting assays, 5×10^3 cells were plated in triplicate in 100 mm cell culture dishes and allowed to attach overnight as above in DMEM+10% FBS and treated with agents in DMEM+5% PPP. Media and agents were replaced every 48 hours. At day 5 cells were trypsinized and counted with hemacytometer.
For the MTS-based cell-viability assay, 5×10^3 cells were plated in 24 well dishes overnight in DMEM+10% FBS. […] Each condition was assayed in triplicate. Media and agents were replaced every 48 hours and viable surviving fraction estimated using the MTS assay at day 5 following treatment.
(Tetrazolium dyes change colour on reduction, which living cells bring about.)

Assay [2] has as its system chronic myeloid leukemia and gastrointestinal stromal tumours. The settings on record: humans; cited from earlier work.
The subject of assay [3] is simian sarcoma virus-transformed NIH/3T3 (sis 3T3) fibroblast cells. Briefly: Screening assay, crystal violet staining of cells in 12-well dishes (FIG. 1). Type of assay: cell-based. The settings on record: single agent in increasing amounts (STI-571 0-3 μM; ADW 0-1 μM), DMEM+5% PPP, crystal violet at day 5 and 8. The protocol:
Screening Assay. […] Cells were plated and attached overnight in growth media consisting of DMEM with 10% fetal bovine serum (FBS). […] Media with agents was replaced every 48 hours. At day 5 and 8, media was withdrawn and cells were fixed and stained in 0.5% crystal violet in 70% methanol. […] For cell-counting assays, 5×10^3 cells were plated in triplicate in 100 mm cell culture dishes and allowed to attach overnight as above in DMEM+10% FBS and treated with agents in DMEM+5% PPP. Media and agents were replaced every 48 hours. At day 5 cells were trypsinized and counted with hemacytometer.

The structures appear in SMILES notation.

Regarding `Cc1ccc(NC(=O)c2ccc(CN3CCN(C)CC3)cc2)cc1Nc1nccc(-c2cccnc2)n1` [STI-571], in assay [1], the “survival (viable surviving fraction)” value is recorded as “no effect on survival” and the “effect on cell growth” value was “little effect”. The “efficacy in treating chronic myeloid leukemia and gastrointestinal stromal tumours” value in assay [2] is listed as “effective”. Moreover, the “density of cells in the monolayer” value in assay [3] is on record as “visibly depleted”.

For `Nc1ncnc2c1c(-c1cccc(OCc3ccccc3)c1)cn2[C@H]1C[C@H](CN2CCCC2)C1` [ADW, trans-5-(3-benzyloxy-phenyl)-7-(3-pyrrolidin-1-ylmethyl-cyclobutyl)-7H-pyrrolo[2,3-d]pyrimidin-4-ylamine], in assay [1], the “survival (viable surviving fraction)” value is “decreased survival” and the “effect on cell growth” value was “little effect”.

The record behind these values is patent US20050215564A1, “Methods and compositions for treating hyperproliferative conditions” (priority 2002, published 2005).
